From patent publication US20220306640A1, “HYDANTOIN DERIVATIVE” (ONO PHARMACEUTICAL CO., LTD., priority 2019, published 2022)

What was measured:
[1] = molecular target: T1, DDR1 phosphorylation in T-47D (ATCC, HTB-133) cells (Homo sapiens, UniProt Q08345); assay: Measurement of DDR1 phosphorylation suppression rate by using T-47D cells (p-DDR1 ELISA); type: cell-based; settings: collagen Type I 10 μg/ml, p-DDR1 (panTyr) ELISA
T1 construct: host or cells: T-47D
Procedure: Biological Example 2: Measurement of DDR1 Phosphorylation Suppression Rate by Using T-47D (ATCC, HTB-133) cells
T-47D cells should be in culture for at least 7 days before using in the assay.
Cell culture medium: RPMI 1640 (HyClone) containing 10% Heat-FBS (HyClone) was prepared.
Assay medium: RPMI 1640 containing 0.1% BSA (solarbio) was prepared.
Collagen Type I (rat tail) solution: Assay medium containing 200 μg/mL Collagen I, rat tail (Gibco) was prepared.
Cell lysis buffer: a solution containing IX cell lysis buffer (CST) and 1× protease and phosphatase inhibitor cocktail (Thermofisher) was prepared by using ddH2O.
• 1. Collect cells into tubes and centrifuge at 1200 rpm for 5 min, at room temperature. Re-suspend the cells in cell culture medium pre-warmed to room temperature. • 2. Count cells and suspend at a density of 2×10^5/ml of cell culture medium. Plate the cells at 100 μL per well (Corning 3599 96-well plate, 2×10^4 cells per well final), mixing the cells well between each draw of the pipettor. • 3. Put lid on cell plate and place into the incubator at 37° C., 5% CO2 • 4. Culture cell overnight
• 1. Remove the plate from the incubator • 2. Cell medium is replaced with the 90 μL Assay medium.
• 1. Compound plates are pre-titrated using DMSO (10-fold dilution for 6 points) • 2. Dilute test compound using assay medium; Transfer 1 μL compound to other 96 well plate and then add 49 μL assay medium to each well (50 fold dilution). • 3. Add 5 μL the diluted test compound solution to the appropriate wells by pipettor. Compound final concentration is start from […] and DMSO final concentration is 0.1 • 4. Tap the plates gently to mix in compound. Reseal the plate with a lid and place in the incubator again, for 24 h.
• 1. Diluted collagen Type I in assay medium to the 200 μg/ml concentration • 2. Using the pipettor adds 5 μL of 200 μg/mL collagen Type I solution to the cell plate (compound well and High control well, collagen final conc. is 10 μg/ml). Add assay medium buffer to the control wells (low control well) • 3. Reseal the plate with a lid and place in the incubator. Incubate 24 h for collagen type I
• 1. After incubation, add 100 µL per well Cell lysis buffer. • 2. Incubate 30 min on ice, then freezing to −80° C. to get the fully cell lysates. • 3. Transfer cell lysates to new plate • 4. Centrifuge for 30 min (×4000 rpm) at 4° C. Then transfer the supernatant to a new plate.
p-DDR1 (panTyr) ELISA kit (CST) was used in the study. The measurement was carried out according to the attached instruction.
(§1) The inhibition rate (%) in the test compound group was calculated based on the following mathematical formula.
% inhibition=100−100*(assay value of test compound−A)/(B−A) [Math. 2]
A: average value of low control group B: average value of high control group Values of 50% inhibition rate (IC50 values) of the test compound were calculated from the inhibition curve based on the inhibition rate of the test compounds in each concentration.

ROCK = ROCK (Homo sapiens, UniProt O75116); assay: Evaluation of kinase selectivity: % inhibition rate of ROCK at 1 μmol/L; type: biochemical; settings: compound at 1 μmol/L; read-out: % inhibition rate of ROCK2
Procedure: (§2) Biological Example 3: Evaluation of Kinase Selectivity
(§3) % inhibition rate with respect to various kinases (for example KDR etc.) of 1 μmol/L the test compound is measured.
(§4) A general assay condition (substrates, cofactor, ATP concentrations and reaction time etc.) suitable for respective kinase enzyme inhibition activity test is used.
(§5) 1 Prepare the test compounds into 1 mmol/L DMSO solution. 2 Transfer 20 nL of stock to 384 assay plate. Use DMSO as High and Low controls.
(§6) 1 Prepare the 1.3× Enzyme solution containing enzyme, substrate and cofactors. 2 Add 15 μL of 1.3× Enzyme solutions to each well and incubate the plate at room temperature for 30 min. 3 Initiate the reaction by adding 5 μL of 4×ATP solution. The final volume of each well should be 20 μL. 4 Incubate the plate at room temperature for reaction and add 75 μL of stopping buffer (containing 0.5 mol/L EDTA) to terminate the reaction.
(§7) Analyze the sample of each well using EZ reader (PerkinElmer).
(§8) Calculate the % Inhibition using read conversion ratio (CR) following the equation as below.
(§9) Use well treated with DMSO as High Control Use well without enzyme as Low Control

Flt-3 = molecular target: T2, Flt-3 (Homo sapiens, UniProt P36888); assay: Evaluation of kinase selectivity: % inhibition rate of Flt-3 at 1 μmol/L; type: biochemical; settings: compound at 1 μmol/L
T2 sequence (P36888 27-993): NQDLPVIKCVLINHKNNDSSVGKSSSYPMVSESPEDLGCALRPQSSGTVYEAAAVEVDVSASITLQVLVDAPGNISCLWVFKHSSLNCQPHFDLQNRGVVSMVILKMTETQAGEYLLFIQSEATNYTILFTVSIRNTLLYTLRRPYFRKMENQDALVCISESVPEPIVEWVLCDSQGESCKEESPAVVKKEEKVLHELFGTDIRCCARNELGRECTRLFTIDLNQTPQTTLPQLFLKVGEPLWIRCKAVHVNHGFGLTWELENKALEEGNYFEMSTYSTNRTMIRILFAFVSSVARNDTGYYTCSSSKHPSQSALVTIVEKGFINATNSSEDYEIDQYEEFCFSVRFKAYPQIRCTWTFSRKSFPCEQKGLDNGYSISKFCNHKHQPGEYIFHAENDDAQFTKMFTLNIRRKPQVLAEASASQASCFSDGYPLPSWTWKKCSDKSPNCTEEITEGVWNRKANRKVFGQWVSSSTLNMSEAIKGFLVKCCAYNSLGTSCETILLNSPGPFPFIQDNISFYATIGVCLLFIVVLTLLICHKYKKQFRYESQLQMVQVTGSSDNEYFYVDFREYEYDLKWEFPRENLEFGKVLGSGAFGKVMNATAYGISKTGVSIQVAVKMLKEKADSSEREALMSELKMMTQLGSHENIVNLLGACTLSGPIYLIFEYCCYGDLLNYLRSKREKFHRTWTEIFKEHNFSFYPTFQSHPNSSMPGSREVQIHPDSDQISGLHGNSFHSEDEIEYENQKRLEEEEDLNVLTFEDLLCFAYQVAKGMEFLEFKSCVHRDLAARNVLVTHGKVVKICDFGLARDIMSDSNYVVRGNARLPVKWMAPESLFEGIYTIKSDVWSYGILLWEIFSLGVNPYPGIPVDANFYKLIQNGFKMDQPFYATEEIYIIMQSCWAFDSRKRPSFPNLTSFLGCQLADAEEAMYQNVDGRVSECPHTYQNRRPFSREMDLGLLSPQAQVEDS
Procedure: as §2, §3, §4, §5, §6, §7, §8, §9

KDR = KDR (Homo sapiens, UniProt P35968); assay: Evaluation of kinase selectivity: % inhibition rate of KDR at 1 μmol/L; type: biochemical; settings: compound at 1 μmol/L
Procedure: as §2, §3, §4, §5, §6, §7, §8, §9

DDR1 = molecular target: T3, DDR1 (Homo sapiens, UniProt Q08345); assay: Measurement of DDR1 inhibitory activity (LanthaScreen system, in vitro test); type: binding; settings: GST-DDR1, Kinase tracer 178
T3 construct: purchased Invitrogen
Procedure: Biological Experiment Example 1: Measurement of an DDR1 Inhibitory Activity (In Vitro Test)
An DDR1 enzyme inhibitory activity was measured by using LanthaScreen (registered trademark) system (Invitrogen) based on the attached instruction. The reagents used are shown below.
Assay buffer: 5× Kinase buffer A (Invitrogen) was diluted 5-fold with ddH2O.
1× Kinase Buffer A: 50 mmol/L HEPES pH 7.5, 10 mmol/L MgCl2, 1 mmol/L EGTA, 0.01% Brij-35.
2×DDR1 Solution: a solution containing […] GST-DDR1 (Invitrogen) was prepared by using Assay buffer.
2× Tracer/antibody solution: a solution containing 20 nmol/L Kinase tracer 178 (Invitorgen) and […] Eu-Anti-GST Antibody (Invitorogen) was prepared by using Assay buffer. Test compound solution: a solution containing a test compound of 2-fold concentration with respect to the final concentration was prepared by 50-fold diluting a DMSO solution of test compound of each concentration with the Assay buffer.
• 1 Add 5 μL 2×DDR1 Solution to proxiplate (PerkinElmer) • 2 Add 5 μL test compound solution to proxiplate • 3 Incubate for 15 min at RT • 4 Add 5 μL 2× Tracer/Antibody solution to all well Incubate 1 h at RT • 6 Read LANCE Eu on Envision (PerkinElmer) (Ex: 320 nm/Em 665 nm & 615 nm)
In the low control group, 5 μL Assay buffer was added instead of 5 μL 2×DDR1 Solution and the final 1% DMSO solution was added instead of test compound solution.
In the high control group, the final 1% DMSO solution was added instead of test compound solution.
as §1
% inhibition=100−100*(assay value of test compound−A)/(B−A) [Math. 1]
A: average value of low control group B: average value of high control group
Values of 50% inhibition rate (IC50 values) of the test compound were calculated from the inhibition curve based on the inhibition rate of the test compounds in each concentration.

T3 sequence (Q08345 19-913): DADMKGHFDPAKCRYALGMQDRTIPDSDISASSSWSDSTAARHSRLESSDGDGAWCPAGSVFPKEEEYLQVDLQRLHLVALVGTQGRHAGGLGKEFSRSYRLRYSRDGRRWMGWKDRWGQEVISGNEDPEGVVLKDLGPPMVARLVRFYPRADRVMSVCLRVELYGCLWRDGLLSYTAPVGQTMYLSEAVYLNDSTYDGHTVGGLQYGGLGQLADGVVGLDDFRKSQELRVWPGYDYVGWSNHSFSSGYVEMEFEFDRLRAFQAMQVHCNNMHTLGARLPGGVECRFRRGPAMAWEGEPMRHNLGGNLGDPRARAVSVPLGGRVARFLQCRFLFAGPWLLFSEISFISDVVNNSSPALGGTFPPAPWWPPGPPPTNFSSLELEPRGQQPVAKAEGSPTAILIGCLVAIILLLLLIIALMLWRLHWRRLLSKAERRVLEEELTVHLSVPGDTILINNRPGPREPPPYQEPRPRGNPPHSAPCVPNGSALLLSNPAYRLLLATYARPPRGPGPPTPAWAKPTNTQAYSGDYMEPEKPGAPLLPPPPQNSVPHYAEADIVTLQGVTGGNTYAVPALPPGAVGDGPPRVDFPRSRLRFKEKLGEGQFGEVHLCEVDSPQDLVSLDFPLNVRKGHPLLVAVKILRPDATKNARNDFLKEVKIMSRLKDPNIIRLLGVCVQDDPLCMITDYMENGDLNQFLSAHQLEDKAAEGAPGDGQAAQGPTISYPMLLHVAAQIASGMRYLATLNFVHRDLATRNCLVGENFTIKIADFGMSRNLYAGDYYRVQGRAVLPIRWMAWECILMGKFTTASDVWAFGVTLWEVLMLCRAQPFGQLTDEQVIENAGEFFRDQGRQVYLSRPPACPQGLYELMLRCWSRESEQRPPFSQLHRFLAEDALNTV
T1 sequence (Q08345 19-913): as above
ROCK, sequence (O75116 whole entry): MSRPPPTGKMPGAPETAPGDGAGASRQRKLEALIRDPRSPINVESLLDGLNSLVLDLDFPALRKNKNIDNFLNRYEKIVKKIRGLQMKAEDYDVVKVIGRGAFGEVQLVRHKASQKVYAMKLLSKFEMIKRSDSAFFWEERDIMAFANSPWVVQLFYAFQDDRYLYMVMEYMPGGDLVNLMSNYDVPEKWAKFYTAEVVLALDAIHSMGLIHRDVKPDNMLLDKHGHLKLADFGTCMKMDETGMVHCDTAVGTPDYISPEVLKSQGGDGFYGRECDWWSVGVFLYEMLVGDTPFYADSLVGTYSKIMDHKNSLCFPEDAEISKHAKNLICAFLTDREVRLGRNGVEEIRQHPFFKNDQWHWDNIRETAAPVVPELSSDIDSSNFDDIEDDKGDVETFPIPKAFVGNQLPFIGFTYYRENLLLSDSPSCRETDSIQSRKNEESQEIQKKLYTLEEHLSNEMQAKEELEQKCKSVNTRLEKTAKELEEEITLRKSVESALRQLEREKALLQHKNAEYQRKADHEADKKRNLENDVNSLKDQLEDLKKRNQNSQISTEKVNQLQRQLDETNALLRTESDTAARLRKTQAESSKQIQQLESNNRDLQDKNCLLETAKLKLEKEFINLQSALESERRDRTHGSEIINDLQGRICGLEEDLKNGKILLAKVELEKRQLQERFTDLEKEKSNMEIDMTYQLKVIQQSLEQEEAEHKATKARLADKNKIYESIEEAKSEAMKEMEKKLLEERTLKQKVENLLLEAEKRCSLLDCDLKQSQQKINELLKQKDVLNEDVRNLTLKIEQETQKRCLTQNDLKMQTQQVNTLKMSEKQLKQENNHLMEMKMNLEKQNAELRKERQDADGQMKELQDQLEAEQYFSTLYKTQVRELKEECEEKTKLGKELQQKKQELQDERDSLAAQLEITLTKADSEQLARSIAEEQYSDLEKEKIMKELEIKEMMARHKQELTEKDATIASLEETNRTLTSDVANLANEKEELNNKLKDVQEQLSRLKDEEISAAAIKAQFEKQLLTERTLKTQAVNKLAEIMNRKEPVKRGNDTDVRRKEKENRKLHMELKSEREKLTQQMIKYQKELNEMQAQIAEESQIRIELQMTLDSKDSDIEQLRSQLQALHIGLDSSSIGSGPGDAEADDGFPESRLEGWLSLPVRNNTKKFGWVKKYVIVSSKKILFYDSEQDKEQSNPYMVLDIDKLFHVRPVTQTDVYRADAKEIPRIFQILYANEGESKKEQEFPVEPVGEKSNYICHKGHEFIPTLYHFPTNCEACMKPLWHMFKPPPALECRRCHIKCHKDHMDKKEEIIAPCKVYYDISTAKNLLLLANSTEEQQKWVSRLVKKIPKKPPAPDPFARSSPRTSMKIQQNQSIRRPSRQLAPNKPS
KDR, sequence (P35968 20-1356, species assumed): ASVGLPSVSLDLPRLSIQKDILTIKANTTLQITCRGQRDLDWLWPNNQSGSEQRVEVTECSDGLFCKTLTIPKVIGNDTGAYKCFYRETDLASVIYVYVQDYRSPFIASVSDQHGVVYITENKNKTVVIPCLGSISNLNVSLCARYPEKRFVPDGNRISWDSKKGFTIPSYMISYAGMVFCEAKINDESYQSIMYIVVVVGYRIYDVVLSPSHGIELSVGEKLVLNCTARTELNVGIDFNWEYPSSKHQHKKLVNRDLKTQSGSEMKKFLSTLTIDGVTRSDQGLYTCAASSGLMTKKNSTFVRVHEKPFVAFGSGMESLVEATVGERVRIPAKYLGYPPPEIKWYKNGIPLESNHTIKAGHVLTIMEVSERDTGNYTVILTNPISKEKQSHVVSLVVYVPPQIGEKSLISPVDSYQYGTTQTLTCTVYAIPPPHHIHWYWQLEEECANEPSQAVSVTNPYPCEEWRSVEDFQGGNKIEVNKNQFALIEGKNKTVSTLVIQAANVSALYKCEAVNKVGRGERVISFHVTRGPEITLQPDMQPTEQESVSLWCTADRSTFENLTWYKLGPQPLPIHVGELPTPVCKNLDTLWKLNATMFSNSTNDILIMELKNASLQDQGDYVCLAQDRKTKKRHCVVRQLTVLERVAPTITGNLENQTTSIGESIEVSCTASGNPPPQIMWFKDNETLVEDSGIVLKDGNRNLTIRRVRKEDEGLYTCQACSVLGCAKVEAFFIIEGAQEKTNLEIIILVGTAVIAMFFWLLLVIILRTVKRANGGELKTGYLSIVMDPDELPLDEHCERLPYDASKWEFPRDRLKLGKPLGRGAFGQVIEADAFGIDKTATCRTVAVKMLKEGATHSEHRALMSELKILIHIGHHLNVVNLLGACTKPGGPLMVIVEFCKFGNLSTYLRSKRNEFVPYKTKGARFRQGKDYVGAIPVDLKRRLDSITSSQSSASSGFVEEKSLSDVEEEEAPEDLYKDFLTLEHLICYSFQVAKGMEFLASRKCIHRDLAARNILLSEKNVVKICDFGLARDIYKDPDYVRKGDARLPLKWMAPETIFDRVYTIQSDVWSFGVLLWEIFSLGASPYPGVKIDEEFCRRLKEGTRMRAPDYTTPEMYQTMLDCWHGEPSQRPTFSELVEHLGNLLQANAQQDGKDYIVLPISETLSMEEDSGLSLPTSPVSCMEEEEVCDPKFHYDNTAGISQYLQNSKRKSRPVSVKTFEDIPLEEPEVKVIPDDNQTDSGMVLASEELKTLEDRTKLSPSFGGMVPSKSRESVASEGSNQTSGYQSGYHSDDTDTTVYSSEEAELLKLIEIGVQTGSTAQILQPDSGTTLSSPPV

Compound | IC50 [1] | inhibition at 1 µM (ROCK) | inhibition at 1 µM (Flt-3) | inhibition at 1 µM (KDR) | IC50 (DDR1)
O=C1CN(c2cncc(C(F)(F)F)c2)C(=O)N1C12CCC(Oc3ncnc4[nH]cc(F)c34)(CC1)C2 [Example 42(1), 3-{4-[(5-fluoro-7H-pyrrolo[2,3-d]pyrimidin-4-yl)oxy]bicyclo[2.2.1]hept-1-yl}-1-[5-(trifluoromethyl)-3-pyridinyl]-2,4-imidazolidinedione] | 8 nM | -8% | -2% | -3% | 
Cc1cc(Oc2ccnc(N)n2)ccc1N1C(=O)CN(c2cncc(C(F)(F)F)c2)C1=O [Example 2, 3-{4-[(2-amino-4-pyrimidinyl)oxy]-2-methylphenyl}-1-[5-(trifluoromethyl)-3-pyridinyl]-2,4-imidazolidinedione] | 3 nM | -5% | 4% | 1% | 5 nM
O=C1CN(c2cncc(C(F)(F)F)c2)C(=O)N1C12CCC(Oc3ncnc4[nH]ccc34)(CC1)C2 [Example 3(65), 3-[4-(7H-pyrrolo[2,3-d]pyrimidin-4-yloxy)bicyclo[2.2.1]hept-1-yl]-1-[5-(trifluoromethyl)-3-pyridinyl]-2,4-imidazolidinedione] | 2 nM | 5% | 5% | -1% | 3 nM
O=C1CN(c2cc(F)cc(C(F)(F)F)c2)C(=O)N1[C@H]1CC[C@H](Oc2cnc3ccsc3c2)CC1 [Example 2(125), 1-[3-fluoro-5-(trifluoromethyl)phenyl]-3-[trans-4-(thieno[3,2-b]pvridin-6-yloxy)cyclohexyl]-2,4-imidazolidinedione] | 5 nM |  |  |  | 20 nM
COc1ccc2c(O[C@H]3CC[C@H](N4C(=O)CN(c5cncc(C(F)(F)F)c5)C4=O)CC3)ncnc2c1 [Example 2(19), 3-{trans-4-[(7-methoxy-4-quinazolinyl)oxy]cyclohexyl}-1-[5-(trifluoromethyl)-3-pyridinyl]-2,4-imidazolidinedione] | 1 nM |  |  |  | 3 nM

Now from value to compound:

IC50 [1] | inhibition at 1 µM (ROCK) | inhibition at 1 µM (Flt-3) | inhibition at 1 µM (KDR) | IC50 (DDR1) | Compound
1 nM | -2% | 16% | 2% | 1 nM | O=C1CN(c2cncc(C(F)(F)F)c2)C(=O)N1c1ccc(Oc2cnc3[nH]ncc3c2)cc1 [Example 1(11), 3-[4-(1H-pyrazolo[3,4-b]pyridin-5-yloxy)phenyl]-1-[5-(trifluoromethyl)-3-pyridinyl]-2,4-imidazolidinedione]
2 nM |  |  |  | 3 nM | Nc1ncc(Oc2ccc(N3C(=O)CN(c4cncc(C(F)(F)F)c4)C3=O)cc2)cn1 [Example 1, 3-{4-[(2-amino-5-primidinyl)oxy]phenyl}-1-[5-(trifluoromethyl)-3-pyridinyl]-2,4-imidazolidinedione]
1 nM |  |  |  | 1 nM | Cc1cc(N2C(=O)CN(c3cncc(C(F)(F)F)c3)C2=O)ccc1Oc1ccnc2ccnn12 [Example 3(47), 3-[3-methyl-4-(pyrazolo[1,5-a]pyrimidin-7-yloxy)phenyl]-1-[5-(trifluoromethyl)-3-pyridinyl]-2,4-imidazolidinedione]
0.1 nM |  |  |  | 2 nM | CCc1cc(N2C(=O)CN(c3cncc(C(F)(F)F)c3)C2=O)ccc1Oc1ccnc2[nH]ccc12 [Example 3(176), 3-[3-ethyl-4-(1H-pyrrolo[2,3-b]pyridin-4-yloxy)phenyl]-1-[5-(trifluoromethyl)-3-pyridinyl]-2,4-imidazolidinedione]
